# Measured values: patent US7001770B1, “Calpain inhibitors and their applications” (priority 1998, dated 2006)
# Square brackets hold non-standard residues; d marks the D form. Peptide text beside a SMILES is read from it. Nle = CCCC[C@H](N)C(=O)O
# System: beta-galactosidase transgene
# Experiment: In vivo transgene RNA in liver by RT-PCR
# Design: species or system C57BL/6 mice
# Settings: CI-1 60 mg/kg ip, three administrations; 9×10^9 particle/ml rAd beta-galactosidase tail vein; seen in one third of the mice
# Experimental: […] C57BL/6 mice were treated with 60 mg/kg injected intraperitoneally on day minus one. Three control mice were injected with CI-1 solvent only (PBS/0.02% DMSO). On day zero, all mice were tail vein injected with 9×10^9 particle/ml with a recombinant adenovirus encoding the beta-galactosidase transgene. CI-1 or solvent was administed one additional time on day one for three total intraperitoneal administrations of CI-1. Mice were sacrificed three days and nine days later (four-and ten days post-infection respectively), and livers were harvested for quantitative PCR and RT-PCR to detect viral DNA and viral transcript (b-galactosidase) respectively. One third of the miceexpressed a high level of transgene RNA in response to calpain inhibitor 1 treatment, as compared with virus alone.
smiles,measurement,value
"CCCC[C@@H](C=O)NC(=O)[C@H](CC(C)C)NC(=O)[C@H](CC(C)C)NC(C)=O [CI-1, N-acetyl-leu-leu-norleucinal] (Ac-Leu-Leu-[Nle]-aldehyde)",level of transgene RNA in liver compared with virus alone,Approximately a six fold higher level
